Values joined by “and” are separate entries in the source; they are usually repeats but may differ in a detail not shown here. Identical values can stand only once.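 The compound was tested at five concentrations on cells cultured in 96-well plates, with a 48-hour exposure period. GI50 = concentration required for 50% inhibition of growth. The concentration for full growth arrest is given as TGI.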
Legend:
Test in all cases: NCI tumour cell line growth inhibition, 48 h
[1] = test system: HL-60(TB) leukemia
[2] = test system: HCT-15 colon
[3] = test system: SNB-75 CNS
[4] = test system: OVCAR-4 ovarian
[5] = test system: COLO 205 colon
[6] = test system: OVCAR-8 ovarian
[7] = test system: LOX IMVI melanoma
[8] = test system: MCF7 breast
[9] = test system: UO-31 renal
[10] = test system: HCT-116 colon

Row | SMILES | GI50 [1] | TGI [1] | GI50 [2] | TGI [2] | GI50 [3] | TGI [3] | GI50 [4] | TGI [4] | GI50 [5] | TGI [5] | GI50 [6] | TGI [6] | GI50 [7] | TGI [7] | GI50 [8] | TGI [8] | GI50 [9] | TGI [9] | GI50 [10] | TGI [10]
1 | COc1cc(-c2nc(-c3ccc(-c4nc5ccc(F)cc5[nH]4)cc3)no2)cc(OC)c1OC | 2.24 µM | 5.35 µM | 3.15 µM | 12.8 µM | 7.74 µM | 62.4 µM | 2.82 µM | 11.3 µM | 4.77 µM | 17 µM | 2.36 µM | 7.61 µM | 1.65 µM | 3.73 µM | 2.88 µM | 13.5 µM | 2.51 µM | 6.3 µM | – | –
2 | Fc1cccc(Cl)c1Cn1c(-c2c(F)cccc2Cl)nc2ccccc21 | 3.86 µM | 74.6 µM | 16.4 µM | 42.9 µM | 22.1 µM | 69.3 µM | 23.6 µM | 58.3 µM | 17.5 µM | > 100 µM | 17.3 µM | 37.8 µM | 20.5 µM | 42.2 µM | 20 µM | 57.8 µM | 12.4 µM | 28.4 µM | 34.4 µM | > 100 µM
3 | Clc1ccc2nc(Cl)c3ccccc3c2c1 | > 100 µM | > 100 µM | > 100 µM | > 100 µM | 2.09 µM | 8.16 µM | 2.03 µM | 5.02 µM | 46.8 µM | > 100 µM | 11.8 µM | > 100 µM | 20.9 µM | > 100 µM | 96 µM | > 100 µM | 3.82 µM | 38.1 µM | 4.34 µM | 22.1 µM
4 | COc1ccc(-n2cc(-c3cc(OC)c(OC)c(OC)c3)[nH]c2=S)cc1Cl | > 100 µM | > 100 µM | > 100 µM | > 100 µM | 18.6 µM | 48.7 µM | 27.2 µM | > 100 µM | 70.8 µM | > 100 µM | 50.2 µM | > 100 µM | 6.12 µM | > 100 µM | 68 µM | > 100 µM | 38.6 µM | > 100 µM | 24.4 µM | > 100 µM
5 | CCOC(=O)c1ccccc1SC(C[N+](=O)[O-])c1ccccc1 (stereo unspecified) | 5.96 µM | 27.9 µM | 2.37 µM | 6.78 µM | 12.7 µM | 41.6 µM | 12.9 µM | 25.5 µM | 3.6 µM | 13 µM | 10.5 µM | 22.5 µM | 1.81 µM | 3.51 µM | 1.07 µM | 4.12 µM | 2.43 µM | 7.22 µM | 1.46 µM | 2.98 µM
6 | CC(C)C[CH2][Ge]([CH2]CC(C)C)([CH2]CC(C)C)[CH2]CC(C)C | > 100 µM | > 100 µM | > 100 µM | > 100 µM | > 100 µM | > 100 µM | > 100 µM | > 100 µM | > 100 µM | > 100 µM | > 100 µM | > 100 µM | > 100 µM | > 100 µM | > 100 µM | > 100 µM | > 100 µM | > 100 µM | > 100 µM | > 100 µM
7 | O=C1NC(=O)[C@@H](c2c[nH]c3ccccc23)[C@@H]1c1c[nH]c2ccccc12 | > 25 µM | > 25 µM | > 25 µM | > 25 µM | > 25 µM | > 25 µM | > 25 µM | > 25 µM | > 25 µM | > 25 µM | > 25 µM | > 25 µM | > 25 µM | > 25 µM | > 25 µM | > 25 µM | > 16.4 µM | > 25 µM | > 25 µM | > 25 µM
8 | Nc1nccc2c1ccn2-c1cccc(NC(=O)c2ccc(N3CCOCC3)c(C(F)(F)F)c2)c1 | 1.09 µM | 7.83 µM | 0.443 µM | > 22.7 µM | 0.307 µM | 2.25 µM | 1.77 µM | > 36.1 µM | – | – | 1.34 µM | 10.3 µM | 0.997 µM | > 16.2 µM | 0.181 µM | > 18.5 µM | 1.2 µM | 14 µM | 0.677 µM | 8.66 µM
9 | O=C(Oc1ccccc1Cl)c1ccccc1Nc1cccc(C(F)(F)F)c1 | – | – | 29.4 µM | > 100 µM | 43.1 µM | > 100 µM | 62.7 µM | > 100 µM | 28 µM | > 100 µM | 32 µM | > 100 µM | 11.9 µM | 33.5 µM | 33.9 µM | > 100 µM | 30.9 µM | > 100 µM | 14.7 µM | 40.9 µM
10 | O=C(NO)c1ccc(Cn2c(=O)n(-c3ccccc3)c(=O)c3ccccc32)cc1 | 2.66 µM | > 100 µM | – | – | 1.88 µM | 5.35 µM | 1.56 µM | 18.7 µM | 0.356 µM | 1.39 µM | – | – | 1.26 µM | 2.62 µM | 1.73 µM | 60.2 µM | 1.77 µM | 4.63 µM | 0.324 µM | 0.898 µM
11 | Fc1ccc([C@@H]2CCNC[C@H]2COc2ccc3c(c2)OCO3)cc1 | 4.95 µM | 19.9 µM | 11 µM | 27 µM | 1.32 µM | 7.61 µM | 10.6 µM | 23.1 µM | 1.91 µM | 3.69 µM | – | – | – | – | 3.23 µM | 14.6 µM | 5.76 µM | 19.6 µM | 6.07 µM | 21.8 µM
12 | O=C(Cc1csc2nc(-c3ccc(Br)cc3)cn12)N/N=C/c1ccc(Cl)cc1Cl | – | – | 25.5 µM | 73.2 µM | 37.5 µM | > 100 µM | 37.3 µM | > 100 µM | 75 µM | > 100 µM | 18.6 µM | 50.3 µM | 21.2 µM | 48.6 µM | > 100 µM | > 100 µM | 72.4 µM | > 100 µM | 17.1 µM | 36.8 µM
13 | O=C1C(Br)=C(Br)C(=O)c2ccccc21 | – | 15.6 µM | – | 31.4 µM and 45.1 µM | 27.2 µM and 3.27 µM | 79 µM and 11.1 µM | – | 31.4 µM and 33.3 µM | – | – | 17 µM and 7.06 µM | 30.9 µM and 57 µM | 16.5 µM and 4.69 µM | 31.4 µM and 12.3 µM | – | > 100 µM | 13.6 µM and 5.55 µM | 26.7 µM and 14.7 µM | – | 31.8 µM and 28.1 µM
14 | COC1C(CO)OC(n2c3c(Cl)cccc3c3c4c(c5c6cccc(Cl)c6[nH]c5c32)C(=O)NC4=O)C(O)C1O (stereo unspecified) | – | – | – | > 100 µM | – | 5.87 µM | – | 18.3 µM | – | 61.4 µM | – | 16.6 µM | – | 0.289 µM | – | 4.86 µM | – | 2.6 µM | – | 0.781 µM

— PubChem BioAssay (NCI)
